According to paper PMC10582583, “The novel cyclophilin inhibitor C105SR reduces hepatic ischaemia–reperfusion injury via mitoprotection” (JHEP Reports, 2023):

Columns and labels:
[1] = system: isolated mouse liver mitochondria; assay: Ca2+-induced mitochondrial swelling assay; format: biochemical; conditions: energised isolated mouse liver mitochondria
[2] = system: AML-12 cells; assay: Propidium iodide staining, hypoxia/reoxygenation; format: cell-based, mouse; conditions: 1 μM; 4 h hypoxia, 1 h reoxygenation
Method: To assess whether the new SMCypIs reduced mPTP opening-induced cell death, propidium iodide fluorescence was measured in cells that had been co-loaded with calcein-AM. As expected, the loss of calcein fluorescence in cells subjected to hypoxia/reoxygenation was associated with enhanced propidium iodide fluorescence (Fig. 3A and 3C).
Calcium retention capacity (CRC) assay. Isolated liver mitochondria (1 mg/mL) energized with 5 mM glutamate/malate were incubated in a buffer allowing respiration of mitochondria (100 mM KCl, 50 mM sucrose, 10 mM HEPES, 5 mM KH2PO4, pH 7.4 at 30°C) supplemented with 1 µM calcium green 5N fluorescent probe. Mitochondria were pulsed with sequential additions of CaCl2 (20 µM) until mPTP opening along with rapid calcium release happened. The calcium concentration in the extra-mitochondrial medium was monitored with a Jasco FP-6300 spectrofluorimeter (Jasco, Bouguenais, France) at 506 nm excitation and 532 nm emission wavelengths.
Mitochondrial swelling assay. Mitochondrial swelling was assessed by measuring changes in absorbance at 540 nm using a Jasco V-530 spectrophotometer (Bouguenais, France) equipped with magnetic stirring and thermostatic control (30°C). […]
Monitoring of mPTP opening. mPTP opening was monitored in AML-12 cells using the CoCl2-calcein AM fluorescence-quenching assay. […] Calcein fluorescence was measured using a spectrofluorimeter at excitation and emission wavelengths of 485 nm and 535 nm, respectively. Images were acquired using a standard inverted fluorescence microscope (Zeiss Axio, […]
Propidium iodide staining. […] Fluorescence was measured using an Infinite 200 Pro fluorescent plate reader (Tecan, Mannedorf, Switzerland) at excitation and emission wavelengths of 533 nm and 617 nm, respectively. Images were acquired using a standard inverted fluorescence microscope (Zeiss Axio, Oberkochen, Germany). […]
Cell viability assays. Lactate dehydrogenase (LDH) release in culture medium was assessed using the commercially non-radioactive CytoTox-96 kit (Promega, Madison, Wisconsin) following the manufacturer’s instructions. […]

[3] = system: AML-12 cells; assay: Cell viability by MTT assay, hypoxia/reoxygenation; format: cell-based, mouse; conditions: 4 h hypoxia, 2 h reoxygenation; for cell viability (MTT): applied during hypoxia and reoxygenation
Method: As expected, cells subjected to hypoxia/reoxygenation were characterised by greater LDH release and reduced cell viability as compared to untreated controls (Fig. 4A and 4B). […]
Hypoxia/reoxygenation (H/R) in vitro model. […]
Collection (ATCC) and maintained in William’S E culture medium at 37°C with 5% CO2.When indicated, cells were incubated in phosphate buffered saline at 37°C in a hypoxic chamber filled with 94% N2, 1% O2, 5% CO2 for 4 h to mimic ischemic conditions. Then, cells were transferred to a CO2 incubator at 37°C in regular DMEM/F12 culture medium for 1 or 2 h under normoxic conditions (74% N2, 21% O2, 5% CO2). SMCypIs or vehicle (DMSO) were added during the hypoxia period, during the reoxygenation period, or during both. CsA and ALV were used as positive controls for hepatic protection against H/R injury. […]
Cell viability assays. […]
dimethylthiazol-2-yl)-2,5-diphenyltetrazolium bromide (MTT) assay, cells were incubated with a solution of MTT (0.5 mg/mL) for 2 h at 37°C. The medium was then removed and 50 µL DMSO was added to each well. Optical density of purple formazan product was measured at 550 nm. Cell viability was expressed as a percentage of the untreated control.

SMILES | IC50 [1] [nM] | propidium iodide fluorescence [2] | viability at 0.5 µM ([3]; Mus musculus, AML12, 0.5 μM, read-out: increase in cell viability) [%] | cell viability (MTT) [3] | increase in cell viability ([3]; 0.5 μM)
COc1ccc(Br)cc1[C@H](NC(=O)NCc1ccc2c(c1)CCCN2)C(=O)N1CCC[C@@H]1c1cccc2ccsc12 [Compound C105SR, 1-((S)-2-((R)-2-(benzo[b]thiophen-7-yl)pyrrolidin-1-yl)-1-(5-bromo-2-methoxyphenyl)-2-oxoethyl)-3-((1,2,3,4-tetrahydroquinolin-6-yl)methyl)urea] | 9 ± 1 | low propidium iodide fluorescence | ~75 | increased cell viability | 
COc1ccc(Br)cc1[C@H](NC(=O)NCc1ccc(N)cc1)C(=O)N1CCC[C@@H]1c1cccc2ccsc12 [Compound C110SR, 1-(4-aminobenzyl)-3-((S)-2-((R)-2-(benzo[b]thiophen-7-yl)pyrrolidin-1-yl)-1-(5-bromo-2-methoxyphenyl)-2-oxoethyl)urea] | 40 ± 5 | low propidium iodide fluorescence |  | increased cell viability | not effective
